According to article PMC6199744, “Development of Chemical Proteomics for the Folateome and Analysis of the Kinetoplastid Folateome” (ACS Infectious Diseases, 2018):
Where two headings read alike, the source gives them in different places.

Key:
Assay type in all cases: binding
[1] = biological target: T1, HeLa cell extract proteins (Homo sapiens, UniProt Q01469)
T1 construct: endogenous in cells; host or cells: HeLa cell extract

[2] = biological target: T2, HeLa cell extract proteins (Homo sapiens, UniProt O75534)
T2 construct: endogenous in cells; host or cells: HeLa cell extract
T2 sequence (O75534 1-798): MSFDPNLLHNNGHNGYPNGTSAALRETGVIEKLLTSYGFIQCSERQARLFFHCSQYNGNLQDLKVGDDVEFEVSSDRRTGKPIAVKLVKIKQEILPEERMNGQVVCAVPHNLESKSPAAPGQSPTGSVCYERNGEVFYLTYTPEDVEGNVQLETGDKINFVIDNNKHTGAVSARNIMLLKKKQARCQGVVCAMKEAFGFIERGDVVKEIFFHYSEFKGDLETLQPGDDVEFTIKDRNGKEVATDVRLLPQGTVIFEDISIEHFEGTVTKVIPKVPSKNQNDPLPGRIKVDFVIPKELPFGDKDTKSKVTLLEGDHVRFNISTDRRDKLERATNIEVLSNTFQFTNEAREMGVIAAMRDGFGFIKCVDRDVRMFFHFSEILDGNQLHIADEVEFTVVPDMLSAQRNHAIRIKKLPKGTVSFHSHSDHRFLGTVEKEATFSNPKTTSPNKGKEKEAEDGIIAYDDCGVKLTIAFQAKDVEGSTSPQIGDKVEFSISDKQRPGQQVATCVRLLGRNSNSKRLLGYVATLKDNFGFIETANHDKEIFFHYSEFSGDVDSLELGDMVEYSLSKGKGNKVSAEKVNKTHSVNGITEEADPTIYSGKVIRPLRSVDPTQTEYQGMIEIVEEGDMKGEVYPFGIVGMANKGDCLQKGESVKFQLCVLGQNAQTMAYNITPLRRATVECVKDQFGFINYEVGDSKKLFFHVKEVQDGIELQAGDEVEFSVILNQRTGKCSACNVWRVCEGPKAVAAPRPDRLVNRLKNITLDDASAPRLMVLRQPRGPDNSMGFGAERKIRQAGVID

[3] = biological target: T3, HeLa cell extract proteins (Homo sapiens, UniProt Q10570)
T3 construct: endogenous in cells; host or cells: HeLa cell extract
T3 sequence (Q10570 1-1443): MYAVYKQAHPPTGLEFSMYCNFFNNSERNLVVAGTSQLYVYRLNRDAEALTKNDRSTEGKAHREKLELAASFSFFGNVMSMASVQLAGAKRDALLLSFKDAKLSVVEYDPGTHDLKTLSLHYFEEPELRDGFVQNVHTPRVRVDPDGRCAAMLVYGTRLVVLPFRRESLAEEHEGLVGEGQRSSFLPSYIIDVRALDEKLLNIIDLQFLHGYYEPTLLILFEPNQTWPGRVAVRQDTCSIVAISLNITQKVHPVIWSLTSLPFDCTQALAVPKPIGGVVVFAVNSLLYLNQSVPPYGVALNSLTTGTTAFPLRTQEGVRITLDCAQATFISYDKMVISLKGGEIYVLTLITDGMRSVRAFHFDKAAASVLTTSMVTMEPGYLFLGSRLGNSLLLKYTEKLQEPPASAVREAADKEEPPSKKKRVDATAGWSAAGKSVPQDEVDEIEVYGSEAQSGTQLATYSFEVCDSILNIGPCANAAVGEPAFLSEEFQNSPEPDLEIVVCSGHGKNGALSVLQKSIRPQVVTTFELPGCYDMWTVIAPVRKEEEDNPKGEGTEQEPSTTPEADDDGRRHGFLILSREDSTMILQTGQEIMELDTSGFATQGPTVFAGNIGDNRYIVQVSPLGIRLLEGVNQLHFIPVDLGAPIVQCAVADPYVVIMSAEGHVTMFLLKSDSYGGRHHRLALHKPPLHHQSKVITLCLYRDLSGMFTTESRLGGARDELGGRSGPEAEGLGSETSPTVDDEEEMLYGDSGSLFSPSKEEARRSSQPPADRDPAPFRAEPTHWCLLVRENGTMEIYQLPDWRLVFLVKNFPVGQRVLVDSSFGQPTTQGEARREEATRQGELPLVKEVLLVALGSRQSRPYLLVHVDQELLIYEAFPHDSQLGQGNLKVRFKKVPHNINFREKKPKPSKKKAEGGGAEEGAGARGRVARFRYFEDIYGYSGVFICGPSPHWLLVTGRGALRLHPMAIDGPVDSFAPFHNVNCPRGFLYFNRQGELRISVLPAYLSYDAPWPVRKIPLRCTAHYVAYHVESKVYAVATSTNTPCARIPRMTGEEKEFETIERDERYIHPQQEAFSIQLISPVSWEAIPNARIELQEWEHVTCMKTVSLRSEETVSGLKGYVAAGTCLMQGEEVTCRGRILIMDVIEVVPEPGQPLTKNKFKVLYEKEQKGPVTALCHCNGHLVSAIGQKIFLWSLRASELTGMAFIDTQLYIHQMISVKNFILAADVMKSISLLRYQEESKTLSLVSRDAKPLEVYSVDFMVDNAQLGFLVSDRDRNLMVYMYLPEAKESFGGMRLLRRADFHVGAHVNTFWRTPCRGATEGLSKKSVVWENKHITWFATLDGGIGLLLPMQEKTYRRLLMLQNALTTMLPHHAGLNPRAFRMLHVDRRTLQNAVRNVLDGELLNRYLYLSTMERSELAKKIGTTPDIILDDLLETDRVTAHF

[4] = biological target: T4, HeLa cell extract proteins (Homo sapiens, UniProt Q9Y5V3); settings: captured protein MAGED1; HeLa
T4 construct: endogenous in cells; host or cells: HeLa cell extract
T4 sequence (Q9Y5V3 1-778): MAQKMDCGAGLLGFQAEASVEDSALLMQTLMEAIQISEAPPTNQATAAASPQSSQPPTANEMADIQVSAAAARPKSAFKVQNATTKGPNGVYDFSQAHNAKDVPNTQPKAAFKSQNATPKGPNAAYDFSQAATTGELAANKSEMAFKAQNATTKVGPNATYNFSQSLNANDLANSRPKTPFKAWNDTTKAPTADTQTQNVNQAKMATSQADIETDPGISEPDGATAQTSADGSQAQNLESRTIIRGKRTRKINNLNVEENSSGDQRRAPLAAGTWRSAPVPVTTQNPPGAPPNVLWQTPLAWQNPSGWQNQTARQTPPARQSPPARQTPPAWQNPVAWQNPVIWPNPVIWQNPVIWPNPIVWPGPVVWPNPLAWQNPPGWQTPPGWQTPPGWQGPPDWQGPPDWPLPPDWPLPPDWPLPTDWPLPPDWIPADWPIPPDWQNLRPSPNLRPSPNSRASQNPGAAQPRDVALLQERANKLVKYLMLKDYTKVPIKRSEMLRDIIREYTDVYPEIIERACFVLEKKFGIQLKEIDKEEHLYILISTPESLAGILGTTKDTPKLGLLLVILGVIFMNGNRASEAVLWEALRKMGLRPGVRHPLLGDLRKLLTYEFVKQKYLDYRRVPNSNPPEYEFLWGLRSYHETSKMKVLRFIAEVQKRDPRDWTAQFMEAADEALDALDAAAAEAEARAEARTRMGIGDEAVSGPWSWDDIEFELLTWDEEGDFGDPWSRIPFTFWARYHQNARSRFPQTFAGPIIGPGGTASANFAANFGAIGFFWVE

T1 sequence (Q01469 whole entry): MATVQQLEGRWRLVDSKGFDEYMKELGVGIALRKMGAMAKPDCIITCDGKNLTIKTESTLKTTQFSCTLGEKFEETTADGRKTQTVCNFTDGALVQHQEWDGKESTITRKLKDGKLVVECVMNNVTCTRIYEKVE

Nc1nc2c(c(=O)[nH]1)N(C=O)C(CNc1ccc(C(=O)N[C@@H](CCC(=O)O)C(=O)O)cc1)CN2 (stereo partly drawn) [LEU, leucovorin]
fold changes relative to vehicle control ([1]; protein FABP5, HeLa): 1 | fold changes relative to vehicle control ([2]; HeLa, protein CSDE1): 0.96 | fold changes relative to vehicle control ([3]; HeLa, captured protein CPSF1): 0.95

Nc1nc2[nH]cc(CCc3ccc(C(=O)N[C@@H](CCC(=O)O)C(=O)O)cc3)c2c(=O)[nH]1 [PTX, pemetrexed]
fold changes relative to vehicle control [1]: 1.45 | fold changes relative to vehicle control [2]: 1.14 | fold changes relative to vehicle control [3]: 0.88

CCCCCCOc1ccc(Cc2cnc(N)nc2N)cc1 [compound 1]
fold changes relative to vehicle control [4]: 0.98

CCCCCCOc1cccc(Cc2cnc(N)nc2N)c1 [compound 2]
fold changes relative to vehicle control [4]: 0.78

Nc1nc2cccc(-c3ccccc3)c2n1Cc1ccc(Cl)c(Cl)c1 [compound 3]
fold changes relative to vehicle control [4]: 0.88

NCCOCCOCC(=O)Nc1nc2ncc(CNc3ccc(C(=O)NC(CCC(=O)O)C(=O)O)cc3)nc2c(=O)[nH]1 (stereo not drawn) [compound 6]
fold changes relative to vehicle control ([1]; protein FABP5, HeLa): 1.3 | fold changes relative to vehicle control ([2]; HeLa, protein CSDE1): 1.22 | fold changes relative to vehicle control ([3]; HeLa, captured protein CPSF1): 0.97

NCCCNc1ccc(C(=O)NC(CCC(=O)O)C(=O)O)cc1 (stereo not drawn) [compound 7]
fold changes relative to vehicle control ([1]; protein FABP5, HeLa): 1.1 | fold changes relative to vehicle control ([2]; HeLa, protein CSDE1): 1.05 | fold changes relative to vehicle control ([3]; HeLa, captured protein CPSF1): 0.93
